Experiment [1] deals with oil palm. As to the kind of experiment: Field study of cumulative loose fruit (CLF) and cumulative loose mass (CLM) after one-time bunch-directed spray. The class given is in vivo, oil palm (Compact×Ghana plants). Conditions: one spray 100 mL/bunch; for Cumulative Loose Mass / % Difference with UTC (Cumulative Loose Fruit) / % Difference with UTC (Cumulative Loose Mass): 14 days; for % Difference with UTC (Cumulative Loose Fruit) / % Difference with UTC (Cumulative Loose Mass): positive = reduction; for Cumulative Loose Fruit: counted for 14 days. The text has this: Plant Material: A field study was executed in a plantation in Costa Rica to compare the effects of one-time bunch-directed applications of: (1) water sprayed untreated control (UTC); (2) AVG-HCl at 500 ppm (59.5 g) active ingredient (a.i.); (3) AVG-HCl at 125 ppm (14.9 g) a.i.; (4) 200 ppm (0.2 g) a.i. of NAA; (5) AVG-HCl at 500 ppm (59.5 g) a.i. and 200 ppm (0.2 g) a.i. of NAA; and (6) AVG-HCl at 125 ppm (14.9 g) a.i. and 200 ppm (0.2 g) a.i. of NAA. In this study, AVG was provided in a formulation as AVG-HCl. NAA was provided as the sodium salt at concentrations of 20% and 3.5%. For each treatment, 24 palms per treatment were randomly selected covering about 15 hectares. The palms were Compact×Ghana plants and 2.5 to 3 years old. Treatment Application: A manual DEA-2000 sprayer was used to spray all treatments (100 mL/bunch) to bunches with 1 to 3 loose fruits. The time required to spray each bunch was about 11 to 20 seconds depending on the sprayer. Sprays were conducted only once per bunch. Twelve bunches were sprayed on Oct. 28, 2014 and the other 12 on Nov. 4, 2014. Cumulative loose fruit (CLF) and cumulative loose mass (CLM) counts were determined at daily basis with exception of Sundays for 14 days in order to objectively quantify fruit abscission. An electronic balance was used to weight out all fruit. All loose fruit on the bunch, branches and on the ground was counted and weighed.

In experiment [2] the test system is oil palms. The experiment in a line: Oil yield of oil palms after application before harvest of the fruit. The note with it: applied before harvest of the fruit. The class given is in vivo, oil palm.
Experiment [3] concerns oil palm fruit. The note with it: preharvest application to attached bunches of oil palm fruit; cited from earlier work.

Each structure is given as a SMILES string.

This is an account of results in patent publication US9839215B2, “Methods for increasing oil palm yield” (Valent BioSciences Corporation, priority 2015, dated 2017).

With `NCCO/C=C/[C@H](N)C(=O)O` (stereo in doubt) [AVG, [S]-trans-2-amino-4-(2-aminoethoxy)-3-butenoic acid], in experiment [1] (AVG-HCl 125 ppm (14.9 g) a.i.), the “Cumulative Loose Mass” value was found to be 2028 g, the “% Difference with UTC (Cumulative Loose Fruit)” value was 3.9%, the “% Difference with UTC (Cumulative Loose Mass)” value is recorded as −5.4% and the “Cumulative Loose Fruit” value is reported as 160.7. In experiment [1] (AVG-HCl 500 ppm (59.5 g) a.i.), the “Cumulative Loose Mass” value is 1154 g, the “% Difference with UTC (Cumulative Loose Fruit)” value is on record as 48.5%, the “% Difference with UTC (Cumulative Loose Mass)” value came to 40% and the “Cumulative Loose Fruit” value came out at 86.1.
Regarding `O=C(O)Cc1cccc2ccccc12` [NAA, 1-naphthaleneacetic acid], in experiment [1] (NAA 200 ppm (0.2 g) a.i.), the “Cumulative Loose Mass” value amounted to 1501 g, the “% Difference with UTC (Cumulative Loose Fruit)” value is 31.3%, the “% Difference with UTC (Cumulative Loose Mass)” value is 22% and the “Cumulative Loose Fruit” value worked out at 114.8. The “oil yield of oil palms” value in experiment [2] is listed as “increases the oil yield”.
Take `O=P(O)(O)CCCl` [ethephon, 2-chloroethyl phosphonic acid]: the “increase of oil content” value in experiment [3] is given as 7%.
As to `C=C1C[C@]23C[C@@]1(O)CC[C@H]2[C@@]12C=C[C@H](O)[C@@](C)(C(=O)O1)[C@H]2[C@@H]3C(=O)O` [gibberellic acid], the “oil yield of oil palms” value in experiment [2] was “inconsistent and unsatisfactory oil yields”.
